Laboratory results from the supplement of paper PMC10477900.
Counter-ions that a name gives are not always drawn.

Tests used:
HCT116 [1] = experiment: viability inhibition vs untreated; higher = more cytotoxic; settings: 72 h
HCT116 [2] = settings: 72 h
Method: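 HCT116 control and MTA1-KO (CRISPR) HCT116 cells were seeded in 384-well plates (800 cells/well), treated 16 h later with 237 metabolism-related anticancer drugs at five doses (10 uM, 2 uM, 400 nM, 80 nM, 16 nM) for 72 h, two replicates; viability by CCK8. Values are % inhibition of viability relative to untreated cells, plus fitted IC50.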

Compound | viability inhibition (HCT116 [1]; genotype: MTA1-KO, 16 nM) [%] | viability inhibition (HCT116 [1]; genotype: MTA1-KO, 80 nM) [%] | viability inhibition (HCT116 [1]; genotype: MTA1-KO, 400 nM) [%] | viability inhibition (HCT116 [1]; genotype: MTA1-KO, 2000 nM) [%] | viability inhibition (HCT116 [1]; genotype: MTA1-KO, 10000 nM) [%] | viability inhibition (HCT116 [1]; genotype: control, 16 nM) [%] | viability inhibition (HCT116 [1]; genotype: control, 80 nM) [%] | viability inhibition (HCT116 [1]; genotype: control, 400 nM) [%] | viability inhibition (HCT116 [1]; genotype: control, 2000 nM) [%] | viability inhibition (HCT116 [1]; genotype: control, 10000 nM) [%] | IC50 (HCT116 [2]; genotype: MTA1-KO) [µM] | IC50 (HCT116 [2]; genotype: control) [µM]
NS(=O)(=O)c1cc2c(cc1Cl)NCNS2(=O)=O [Hydrochlorothiazide] | -4.21 | -3.92 | -3.75 | -5.89 | -2.82 | 18.6 | 15.8 | 14.2 | -4.67 | 13.5 | > 10 | > 10
Cc1ccc2nc(CN(CCN(Cc3nc4ccc(C)cc4[nH]3)Cc3nc4ccc(C)cc4[nH]3)Cc3nc4ccc(C)cc4[nH]3)[nH]c2c1 | 0.589 | -11.3 | -3.97 | 0.541 | 76.8 | 6.37 | 14.6 | 2.85 | 20.1 | 64.1 | 6.48 | 7.39
O=c1[nH]c(-c2ccc(C(F)(F)F)cc2)nc2c1CSCC2 [XAV939] | 1.12 | -14.7 | -18 | -23.8 | -14.9 | 4.99 | 12.8 | 0.365 | 4.5 | 0.791 | > 10 | > 10
Cc1nc(-c2nc(-c3ccc(OC(F)(F)F)cc3)no2)nn1Cc1cccc(N2CCC(S(C)(=O)=O)CC2)c1 | 1.35 | 25 | 26.2 | 29.9 | 45.9 | 13.9 | 17.5 | 21.8 | 14.5 | 23.9 | > 10 | > 10
CCNC(=O)Nc1ccc(-c2nc(N3CCOC[C@@H]3C)c3c(n2)C(C)(C)S(=O)(=O)C3)cc1 [CZ415] | -6.27 | -12.8 | 23.6 | 61.9 | 75.6 | -5.97 | 12.9 | 20.8 | 61.7 | 60.1 | 0.501 | 0.552
O=c1cc(-c2ccc(O)c(O)c2)oc2cc(O)cc(O)c12 [Luteolin] | -5.43 | -9.09 | -11.5 | -2.12 | 7.81 | 2.79 | 2.36 | 3.47 | 12.7 | 12.7 | > 10 | > 10
CCC(C)(Oc1ccc(C2(c3ccc(OC(C)(CC)C(=O)O)cc3)CCCCC2)cc1)C(=O)O (stereo unspecified) [Clinofibrate] | 12.9 | 5.15 | 19.9 | 28 | 51.7 | -13.2 | -10 | -7.17 | -15.8 | 0.951 | > 10 | > 10
CC(C)(C)c1ccc(S(=O)(=O)NCc2ccc(C(=O)Nc3cccnc3)cc2)cc1 [STF31] | 0.724 | -19.9 | -8.95 | -5.53 | 6.98 | 18.1 | 6.81 | 42.8 | 43.4 | 74.1 | > 10 | 1.33
Cc1ccc(NC(=O)Nc2cc(-c3ccccc3-c3nn[nH]n3)ccc2N(CC(C)C)CC(C)C)cc1 [DO-IN-2] | -2.66 | 13.6 | 7.91 | 10.9 | -6.41 | 4.06 | 0.568 | -3.13 | -1.86 | 41.6 | > 10 | > 10
NS(=O)(=O)c1cc(Cl)c(Cl)c(S(N)(=O)=O)c1 [Dichlorphenamide] | 6.61 | -0.189 | -0.404 | -3.85 | 16.5 | -20.7 | -6.03 | -16.5 | -12.6 | -18.3 | > 10 | > 10
O=C(/C=C/c1ccc2ccccc2n1)c1ccncc1 [PFK015] | -28 | -23.8 | -16.3 | -14 | 124 | -7.66 | -7.18 | -5.47 | 34 | 124 | 2.71 | 2.17
O=c1cc(O)c(Cl)c[nH]1 [Gimeracil] | -16.5 | -10.4 | -7.69 | -8.52 | 5.58 | -1.24 | -1.82 | -11.8 | -5.96 | -7.24 | > 10 | > 10
Clc1ccccc1C(c1ccccc1)(c1ccccc1)n1ccnc1 [Clotrimazole] | -16.8 | -16.8 | -15 | -23.3 | -4.67 | 0.201 | -0.602 | -4.37 | -8.31 | 2.92 | > 10 | > 10
NS(=O)(=O)c1ccccc1 [Benzenesulfonamide] | 3.96 | -4.26 | 4.06 | 12.2 | 54.7 | 7.65 | 12.9 | 10.8 | 25.5 | 55.6 | 9.29 | 8.77
CN(C)C1CCN(C(=O)c2ccc(NC(=O)Nc3ccc(-c4nc(N5CCOCC5)nc(N5CCOCC5)n4)cc3)cc2)CC1 [Gedatolisib] | -5.92 | 17.3 | 63.7 | 80.1 | 82.8 | 19.9 | 26.7 | 68.6 | 88.3 | 103 | 0.187 | 0.305
CCN(CC)C(=S)SSC(=S)N(CC)CC [Disulfiram] | -26.6 | -25.2 | -25.3 | -20.1 | -18.3 | -6.96 | -11.2 | -6.9 | -8.44 | -2.88 | > 10 | > 10
CC(=O)OC(C)(C)/C=C/C(=O)[C@](C)(O)[C@H]1[C@H](O)C[C@@]2(C)[C@@H]3CC=C4[C@@H](C[C@H](O)C(=O)C4(C)C)[C@]3(C)C(=O)C[C@]12C [Cucurbitacin B] | -3.8 | -16.3 | 58.7 | 66.6 | 79.9 | -19.7 | -9.21 | 33.3 | 49.7 | 58.9 | 0.34 | 4.56
COC(=O)[C@@H](N)CCCN=C(N)N[N+](=O)[O-] [L-NAME hydrochloride] | -9.14 | -19.4 | -19.9 | -26 | 24.3 | -17.9 | -12.2 | -11.4 | -20.1 | -19.3 | > 10 | > 10
